Data as given in patent publication US20250205256A1 (GH RESEARCH IRELAND LIMITED, priority 2022, published 2025).

Tests used:
[1] = tested on: patient with postpartum depression (PPD); test: Clinical trial of inhaled 5-MeO-DMT (IDR, 6 mg then 12 mg) in postpartum depression: MADRS; format: in vivo, human; conditions: for Total MADRS score: baseline 29
Text: The patient completed all planned visit days.

[2] = tested on: patients with treatment-resistant major depressive disorder (TRD); test: Phase 1/2 clinical trial of inhaled 5-MeO-DMT in TRD: safety and tolerability
Procedure: This trial was designed in two parts. Part A was an open-label, single-arm, single-dose Phase 1 trial with two dose levels (12 mg (n=4) and 18 mg (n=4)). […] The primary endpoint of Part B was to assess the effects on the severity of depression, as assessed by the proportion of patients in remission on day seven after dosing, defined as a MADRS total score of less than or equal to 10.

[3] = Pharmacokinetics after single inhaled dose of 5-MeO-DMT (LC-MS/MS); format: in vivo, human
Procedure: Blood samples were obtained at 1; 2; 4; 7; 10; 15; 20; 30; 45 min and 1; 1.5; 2; 3; 4 hours after administration.
PK parameters were generated by algebraic analysis of the concentration versus time plots for each individual. The analysis was carried out using the software Phoenix WinNonlin 6.3.

[4] = tested on: patients with treatment-resistant major depressive disorder (TRD); test: Phase 1/2 clinical trial of inhaled 5-MeO-DMT in TRD: MADRS; format: in vivo, human; conditions: for mean MADRS change from baseline at day seven / mean MADRS change from baseline at day seven, percent: n=4
Text: Patients were assigned to different groups.
This trial was designed in two parts.

[5] = 12 mg n=4 sum, 2 h after dose vs baseline
[6] = 12 mg n=4 sum, 2 h after dose, baseline 16
[7] = 12 mg n=4 sum, Day 1, baseline 16
[8] = 12 mg n=4 sum, Day 1 vs baseline
[9] = 12 mg n=4 sum, Day 7, baseline 16
[10] = 12 mg n=4 sum, Day 7 vs baseline
[11] = IDR n=8 sum, 2 h after last dose vs baseline

COc1ccc2[nH]cc(CCN(C)C)c2c1 [5-MeO-DMT]
MADRS response (at least 50% improvement) and MADRS remission (total score ≤10) criteria ([1]; PPD n=1): fulfilled standard criteria | time to clinical response after administration ([1]; PPD n=1): ≤ 2 h | time to clinical remission after administration ([1]; PPD n=1, IDR): ≤ 2 h | Total MADRS improvement ([1]; PPD n=1, 2 hr vs baseline): 24 | Total MADRS score ([1]; PPD n=1, 2 hr): 5 | MADRS Lassitude score ([1]; PPD n=1, Day 1, baseline 3): 0 | Total MADRS score ([1]; PPD n=1, Day 1): 0 | Total MADRS improvement ([1]; PPD n=1, Day 1 vs baseline): 29 | Total MADRS score ([1]; PPD n=1, Day 7): 1 | Total MADRS improvement ([1]; PPD n=1, Day 7 vs baseline): 28 | durability of clinical response ([1]; PPD n=1, single treatment day): sustained over the 7-day follow-up period | changes in safety laboratory analyses, vital signs, psychiatric safety assessments or measures of cognitive function ([2]; Part A and Part B): No clinically significant changes | severity and outcome of ADRs ([2]; Part A, 12 mg and 18 mg groups): mild and resolved spontaneously | patients experiencing at least one ADR ([2]; Part A, 12 mg single dose, n=4): 3 of 4 | patients experiencing at least one ADR ([2]; Part A, 18 mg single dose, n=4): 3 of 4 | SAEs ([2]; Part B, IDR): No SAEs were reported | outcome of ADRs ([2]; Part B, IDR): All ADRs resolved spontaneously | patients experiencing at least one ADR ([2]; Part B, IDR, 7 of 8 patients): 87.5% | detectability in plasma ([3]; 3 hours after inhalation, whole dose range): no longer detectable | pharmacokinetic measurements under uptitration dosing schemes ([3]; compared with single doses): Substantially similar results were obtained | accumulation upon repeated administration ([3]; repeat within 1 to 4 hours): No accumulation is observed | MADRS Concentration Difficulties improvement [4, 5]: 9 | MADRS Inability to Feel improvement [4, 5]: 7 | MADRS Inner Tension improvement [4, 5]: 11 | MADRS Lassitude improvement [4, 5]: 6 | MADRS Pessimistic Thoughts improvement [4, 5]: 8 | MADRS Pessimistic Thoughts percentage improvement [4, 5]: 50.00% | MADRS Suicidal Thoughts improvement [4, 5]: 5 | MADRS Suicidal Thoughts score ([4]; 12 mg n=4 sum, 2 h after dose, baseline 8): 3 | MADRS Inner Tension score ([4]; 12 mg n=4 sum, 2 h after dose, baseline 13): 2 | MADRS Concentration Difficulties score [4, 6]: 7 | MADRS Inability to Feel score [4, 6]: 9 | MADRS Lassitude score [4, 6]: 10 | MADRS Pessimistic Thoughts score [4, 6]: 8 | MADRS Suicidal Thoughts score ([4]; 12 mg n=4 sum, Day 1, baseline 8): 5 | MADRS Reduced Sleep score ([4]; 12 mg n=4 sum, Day 1, baseline 12): 10 | MADRS Inner Tension score ([4]; 12 mg n=4 sum, Day 1, baseline 13): 3 | MADRS Concentration Difficulties score [4, 7]: 2 | MADRS Inability to Feel score [4, 7]: 1 | MADRS Pessimistic Thoughts score [4, 7]: 7 | MADRS Concentration Difficulties improvement [4, 8]: 14 | MADRS Inability to Feel improvement [4, 8]: 15 | MADRS Inner Tension improvement [4, 8]: 10 | MADRS Lassitude improvement [4, 8]: 16 | MADRS Pessimistic Thoughts improvement [4, 8]: 9 | MADRS Reduced Sleep improvement [4, 8]: 2 | MADRS Suicidal Thoughts improvement [4, 8]: 3 | MADRS Suicidal Thoughts score ([4]; 12 mg n=4 sum, Day 7, baseline 8): 7 | MADRS Reduced Sleep score ([4]; 12 mg n=4 sum, Day 7, baseline 12): 6 | MADRS Inner Tension score ([4]; 12 mg n=4 sum, Day 7, baseline 13): 5 | MADRS Concentration Difficulties score [4, 9]: 3 | MADRS Inability to Feel score [4, 9]: 1 | MADRS Lassitude score [4, 9]: 3 | MADRS Pessimistic Thoughts score [4, 9]: 8 | MADRS Concentration Difficulties improvement [4, 10]: 13 | MADRS Inability to Feel improvement [4, 10]: 15 | MADRS Inner Tension improvement [4, 10]: 8 | MADRS Lassitude improvement [4, 10]: 13 | MADRS Pessimistic Thoughts improvement [4, 10]: 8 | MADRS Pessimistic Thoughts percentage improvement [4, 10]: 50.00% | MADRS Reduced Sleep improvement [4, 10]: 6 | MADRS Reduced Sleep percentage improvement [4, 10]: 50.00% | MADRS Suicidal Thoughts improvement [4, 10]: 1 | MADRS Concentration Difficulties improvement [4, 11]: 19 | MADRS Inability to Feel improvement [4, 11]: 24 | MADRS Inner Tension improvement [4, 11]: 15 | MADRS Lassitude improvement [4, 11]: 17 | MADRS Pessimistic Thoughts improvement [4, 11]: 21 | MADRS Pessimistic Thoughts percentage improvement [4, 11]: 75.00% | MADRS Suicidal Thoughts improvement [4, 11]: 8 | MADRS Suicidal Thoughts score ([4]; IDR n=8 sum, 2 h after last dose, baseline 11): 3 | MADRS Inner Tension score ([4]; IDR n=8 sum, 2 h after last dose, baseline 26): 11 | MADRS Lassitude score ([4]; IDR n=8 sum, 2 h after last dose, baseline 27): 10 | MADRS Pessimistic Thoughts score ([4]; IDR n=8 sum, 2 h after last dose, baseline 28): 7 | MADRS Concentration Difficulties score ([4]; IDR n=8 sum, 2 h after last dose, baseline 30): 11 | MADRS Inability to Feel score ([4]; IDR n=8 sum, 2 h after last dose, baseline 36): 12 | MADRS Suicidal Thoughts score ([4]; IDR n=8 sum, Day 1, baseline 11): 1 | MADRS Reduced Sleep score ([4]; IDR n=8 sum, Day 1, baseline 25): 12 | MADRS Inner Tension score ([4]; IDR n=8 sum, Day 1, baseline 26): 6 | MADRS Lassitude score ([4]; IDR n=8 sum, Day 1, baseline 27): 5 | MADRS Pessimistic Thoughts score ([4]; IDR n=8 sum, Day 1, baseline 28): 4 | MADRS Concentration Difficulties score ([4]; IDR n=8 sum, Day 1, baseline 30): 1 | MADRS Inability to Feel score ([4]; IDR n=8 sum, Day 1, baseline 36): 2 | MADRS Concentration Difficulties improvement ([4]; IDR n=8 sum, Day 1 vs baseline): 29 | MADRS Inability to Feel improvement ([4]; IDR n=8 sum, Day 1 vs baseline): 34 | MADRS Inner Tension improvement ([4]; IDR n=8 sum, Day 1 vs baseline): 20 | MADRS Lassitude improvement ([4]; IDR n=8 sum, Day 1 vs baseline): 22 | MADRS Pessimistic Thoughts improvement ([4]; IDR n=8 sum, Day 1 vs baseline): 24 | MADRS Reduced Sleep improvement ([4]; IDR n=8 sum, Day 1 vs baseline): 13 | MADRS Reduced Sleep percentage improvement ([4]; IDR n=8 sum, Day 1 vs baseline): 52.00% | MADRS Suicidal Thoughts improvement ([4]; IDR n=8 sum, Day 1 vs baseline): 10 | MADRS Suicidal Thoughts score ([4]; IDR n=8 sum, Day 7, baseline 11): 3 | MADRS Reduced Sleep score ([4]; IDR n=8 sum, Day 7, baseline 25): 9 | MADRS Inner Tension score ([4]; IDR n=8 sum, Day 7, baseline 26): 12 | MADRS Lassitude score ([4]; IDR n=8 sum, Day 7, baseline 27): 3 | MADRS Pessimistic Thoughts score ([4]; IDR n=8 sum, Day 7, baseline 28): 3 | MADRS Concentration Difficulties score ([4]; IDR n=8 sum, Day 7, baseline 30): 9 | MADRS Inability to Feel score ([4]; IDR n=8 sum, Day 7, baseline 36): 6 | MADRS Concentration Difficulties improvement ([4]; IDR n=8 sum, Day 7 vs baseline): 21 | MADRS Inability to Feel improvement ([4]; IDR n=8 sum, Day 7 vs baseline): 30 | MADRS Inner Tension improvement ([4]; IDR n=8 sum, Day 7 vs baseline): 14 | MADRS Lassitude improvement ([4]; IDR n=8 sum, Day 7 vs baseline): 24 | MADRS Pessimistic Thoughts improvement ([4]; IDR n=8 sum, Day 7 vs baseline): 25 | MADRS Reduced Sleep improvement ([4]; IDR n=8 sum, Day 7 vs baseline): 16 | MADRS Reduced Sleep percentage improvement ([4]; IDR n=8 sum, Day 7 vs baseline): 64.00% | MADRS Suicidal Thoughts improvement ([4]; IDR n=8 sum, Day 7 vs baseline): 8 | mean MADRS change from baseline at day seven ([4]; Part A, 12 mg): −21.0 | mean MADRS change from baseline at day seven, percent ([4]; Part A, 12 mg): −65% | patients with MADRS remission (total score ≤10) on day seven ([4]; Part A, 12 mg, two of four patients): 50% | mean MADRS change from baseline at day seven ([4]; Part A, 18 mg): −12.8 | mean MADRS change from baseline at day seven, percent ([4]; Part A, 18 mg): −41% | further patients with MADRS clinical response on day seven ([4]; Part A, 18 mg, one further patient of four): 25% | patients with MADRS remission (total score ≤10) on day seven ([4]; Part A, 18 mg, one of four patients): 25% | patients with MADRS remission (total score ≤10) on day seven ([4]; Part B, IDR, seven of eight patients, p<0.0001): 87.5%
